Data set [1] in a line: In vitro cytotoxicity assay (sulforhodamine B staining). The conditions noted are these: human. The data set is classed as cell-based, human. How it is done: (§1) Reversal of resistance was determined in cytotoxicity assays using the sulforhodamine staining (Skehan et al. (1990) J. Natl. […] Briefly, cells were harvested and seeded at a density of 2000 cells/well for the colon cancer lines and 4000 cells/well for the breast cancer cell lines in flat-bottom 96-well plates. The cells were incubated for 24 h at 37° C. to allow attachment prior to addition of the drugs. […] Each concentration was tested in triplicate and the controls were done in replicates of eight. Results are representative of from three to six experiments. […] After incubation, the cells were fixed in TCA and stained with sulforhodamine B (SRB) solution (0.4% wt/vol in 1% acetic acid) (Sigma Chemical, St Louis, Mo.). Optical densities were read on a Bio-Rad plate reader (Hercules, Calif.) at an absorbance of 540 nm.
Background: Sulforhodamine B stains cellular protein and so reports cell mass.

Data set [2] concerns MCF-7 parental cells. Described as above. It is filed as cell-based, human. The conditions noted are these: Homo sapiens, MCF7, read-out: IC50 for GF120918 alone; MCF-7 parental cells. How it is done: as §1
Data set [3] has as its system S1 parental cells. The description is as above. It is filed as cell-based, human. The conditions noted are these: Homo sapiens, read-out: IC50 for GF120918 alone; S1 parental cells. The method, then:
as §1

Data set [4] concerns S1-B1-20 Pgp-overexpressing cells. Described as above. The data set is classed as cell-based, human. The conditions noted are these: GF120918 at 1 μM, Pgp-expressing S1-B1-20 cells. How it is done: as §1
The subject of data set [5] is S1-M1-80 cells expressing MXR. Described as above. It is filed as cell-based, human. More on the design: sensitization to topotecan: dose or concentration left out as unconfirmed. How it is done: as §1
Data set [6] relates to MRP-overexpressing MCF-7/VP cells. Described as above. The data set is classed as cell-based, human. How it is done:
Reversal of resistance was determined in cytotoxicity assays using the sulforhodamine staining (Skehan et al. (1990) J. Natl. Cancer Inst. 82: 1107-1112). Briefly, cells were harvested and seeded at a density of 2000 cells/well for the colon cancer lines and 4000 cells/well for the breast cancer cell lines in flat-bottom 96-well plates. The cells were incubated for 24 h at 37° C. to allow attachment prior to addition of the drugs. Mitoxantrone and topotecan at various concentrations were added to the cells with or without the reversal agent and were incubated at 37° C. in a fully humidified atmosphere of 5% CO2 for 96 h. Each concentration was tested in triplicate and the controls were done in replicates of eight.
After incubation, the cells were fixed in TCA and stained with sulforhodamine B (SRB) solution (0.4% wt/vol in 1% acetic acid) (Sigma Chemical, St Louis, Mo.). Optical densities were read on a Bio-Rad plate reader (Hercules, Calif.) at an absorbance of 540 nm.

Data set [7] has as its system MCF-7 parental cells. Nature of the data set: Rhodamine efflux assay (flow cytometry). It is filed as cell-based, human. How it is done:
To provide confirmation, rhodamine efflux assays were performed. […] The results are depicted in FIG. 2.
(Flow cytometry measures light scatter and fluorescence of single cells or particles in a stream.)

The target in data set [8] is T1, MRP (MCF-7/VP cells) (Homo sapiens, UniProt P33527).
T1 construct: Calcein is readily effluxed in the MRP-overexpressing MCF-7/VP cells; endogenous in cells; host or cells: MCF-7/VP (maintained in 4 uM VP-16; provided by Dr. Ken Cowan)
Nature of the data set: Calcein efflux assay (FACS). The conditions noted are these: at 25 μM, MCF-7/VP cells (data not shown). The data set is classed as cell-based. How it is done:
The rhodamine and calcein efflux assays were performed as previously described with minor modifications (Lee et al. (1994) Mol. Pharmacol. 46: 627-638; Versantvoort et al. (1995) Int. J. Cancer 63: 855-862.) Suspensions of logarithmic phase cells were obtained from tissue culture flasks by trypsinization and transferred into round-bottom 96-well plates. […] After the efflux period, the cells were washed with DPBS and placed on ice. A FACSort flow cytometer (Becton Dickinson, San Jose, Calif.) with a 488-nm argon laser was used to analyze the samples. Rhodamine 123 or calcein fluorescence was collected after a 530 nm bandpass filter. A minimum of 10,000 events was collected per sample and the samples were gated on forward scatter versus side scatter to exclude clumps and debris; dead cells were excluded based on propidium iodide staining.
Calcein AM can be used to detect both Pgp and MRP-mediated efflux. Calcein permeates the cell in neutral form as an acetomethoxyester, calcein AM. Esterase activity cleaves the AM group leaving calcein as a fluorescent organic anion.

The test system of data set [9] is MXR-expressing S1-M1-80 cells. Nature of the data set: Confocal microscopy of mitoxantrone / rhodamine 123 accumulation. The data set is classed as cell-based, human. How it is done:
(§2) Cells were seeded in 35 mm glass-bottom microwell dishes (MatTek Corporation, Ashland, Mass.) at a density of 4000 cells/dish and incubated for 48 hours in phenol red-free IMEM supplemented with 10% fetal calf serum. […] The cells were analyzed using a Zeiss LSM 410 confocal laser scanning microscope equipped with a […] argon laser exciting mitoxantrone at 568 nm. Emitted light passed through a 590 nm long-pass filter.

The test system of data set [10] is P-glycoprotein overexpressing S1-B1-20 cells. The description is as above. It is filed as cell-based, human. The method, then: as §2
Data set [11] has as its target Pgp (Homo sapiens, UniProt P08183). The conditions noted are these: reported in literature; cited from earlier work.

Pgp, sequence (P08183 whole entry): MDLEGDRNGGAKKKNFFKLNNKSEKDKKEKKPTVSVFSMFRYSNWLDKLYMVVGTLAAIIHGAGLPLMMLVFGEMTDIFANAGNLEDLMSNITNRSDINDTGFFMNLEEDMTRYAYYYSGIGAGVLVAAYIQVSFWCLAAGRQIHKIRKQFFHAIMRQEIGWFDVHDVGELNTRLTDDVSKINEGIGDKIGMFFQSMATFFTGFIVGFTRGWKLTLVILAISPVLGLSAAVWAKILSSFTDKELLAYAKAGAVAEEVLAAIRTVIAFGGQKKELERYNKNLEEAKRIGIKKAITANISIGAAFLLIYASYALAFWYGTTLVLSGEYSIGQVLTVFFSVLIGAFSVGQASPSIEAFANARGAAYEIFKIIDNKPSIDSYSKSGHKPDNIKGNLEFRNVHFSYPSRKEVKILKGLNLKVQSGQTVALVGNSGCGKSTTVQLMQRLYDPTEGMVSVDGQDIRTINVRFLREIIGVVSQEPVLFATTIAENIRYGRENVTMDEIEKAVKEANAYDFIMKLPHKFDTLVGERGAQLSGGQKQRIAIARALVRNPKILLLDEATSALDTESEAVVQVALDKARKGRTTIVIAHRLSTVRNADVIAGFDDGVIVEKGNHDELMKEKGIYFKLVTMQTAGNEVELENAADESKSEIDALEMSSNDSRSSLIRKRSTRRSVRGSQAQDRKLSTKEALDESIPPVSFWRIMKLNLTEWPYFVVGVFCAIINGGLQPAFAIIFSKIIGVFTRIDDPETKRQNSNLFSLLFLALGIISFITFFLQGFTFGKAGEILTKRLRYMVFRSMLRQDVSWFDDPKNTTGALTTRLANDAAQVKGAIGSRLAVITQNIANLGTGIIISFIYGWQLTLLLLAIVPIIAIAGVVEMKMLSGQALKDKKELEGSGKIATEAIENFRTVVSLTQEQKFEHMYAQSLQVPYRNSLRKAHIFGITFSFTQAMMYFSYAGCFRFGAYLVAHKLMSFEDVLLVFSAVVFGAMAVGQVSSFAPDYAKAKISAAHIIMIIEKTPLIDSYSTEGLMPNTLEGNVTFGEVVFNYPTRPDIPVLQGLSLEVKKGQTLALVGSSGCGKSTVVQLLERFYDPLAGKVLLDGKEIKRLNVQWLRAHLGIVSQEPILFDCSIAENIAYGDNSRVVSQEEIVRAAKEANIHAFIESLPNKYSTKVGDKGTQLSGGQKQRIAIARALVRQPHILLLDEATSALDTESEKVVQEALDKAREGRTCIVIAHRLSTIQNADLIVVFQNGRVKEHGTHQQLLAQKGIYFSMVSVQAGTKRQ
T1 sequence (P33527 whole entry): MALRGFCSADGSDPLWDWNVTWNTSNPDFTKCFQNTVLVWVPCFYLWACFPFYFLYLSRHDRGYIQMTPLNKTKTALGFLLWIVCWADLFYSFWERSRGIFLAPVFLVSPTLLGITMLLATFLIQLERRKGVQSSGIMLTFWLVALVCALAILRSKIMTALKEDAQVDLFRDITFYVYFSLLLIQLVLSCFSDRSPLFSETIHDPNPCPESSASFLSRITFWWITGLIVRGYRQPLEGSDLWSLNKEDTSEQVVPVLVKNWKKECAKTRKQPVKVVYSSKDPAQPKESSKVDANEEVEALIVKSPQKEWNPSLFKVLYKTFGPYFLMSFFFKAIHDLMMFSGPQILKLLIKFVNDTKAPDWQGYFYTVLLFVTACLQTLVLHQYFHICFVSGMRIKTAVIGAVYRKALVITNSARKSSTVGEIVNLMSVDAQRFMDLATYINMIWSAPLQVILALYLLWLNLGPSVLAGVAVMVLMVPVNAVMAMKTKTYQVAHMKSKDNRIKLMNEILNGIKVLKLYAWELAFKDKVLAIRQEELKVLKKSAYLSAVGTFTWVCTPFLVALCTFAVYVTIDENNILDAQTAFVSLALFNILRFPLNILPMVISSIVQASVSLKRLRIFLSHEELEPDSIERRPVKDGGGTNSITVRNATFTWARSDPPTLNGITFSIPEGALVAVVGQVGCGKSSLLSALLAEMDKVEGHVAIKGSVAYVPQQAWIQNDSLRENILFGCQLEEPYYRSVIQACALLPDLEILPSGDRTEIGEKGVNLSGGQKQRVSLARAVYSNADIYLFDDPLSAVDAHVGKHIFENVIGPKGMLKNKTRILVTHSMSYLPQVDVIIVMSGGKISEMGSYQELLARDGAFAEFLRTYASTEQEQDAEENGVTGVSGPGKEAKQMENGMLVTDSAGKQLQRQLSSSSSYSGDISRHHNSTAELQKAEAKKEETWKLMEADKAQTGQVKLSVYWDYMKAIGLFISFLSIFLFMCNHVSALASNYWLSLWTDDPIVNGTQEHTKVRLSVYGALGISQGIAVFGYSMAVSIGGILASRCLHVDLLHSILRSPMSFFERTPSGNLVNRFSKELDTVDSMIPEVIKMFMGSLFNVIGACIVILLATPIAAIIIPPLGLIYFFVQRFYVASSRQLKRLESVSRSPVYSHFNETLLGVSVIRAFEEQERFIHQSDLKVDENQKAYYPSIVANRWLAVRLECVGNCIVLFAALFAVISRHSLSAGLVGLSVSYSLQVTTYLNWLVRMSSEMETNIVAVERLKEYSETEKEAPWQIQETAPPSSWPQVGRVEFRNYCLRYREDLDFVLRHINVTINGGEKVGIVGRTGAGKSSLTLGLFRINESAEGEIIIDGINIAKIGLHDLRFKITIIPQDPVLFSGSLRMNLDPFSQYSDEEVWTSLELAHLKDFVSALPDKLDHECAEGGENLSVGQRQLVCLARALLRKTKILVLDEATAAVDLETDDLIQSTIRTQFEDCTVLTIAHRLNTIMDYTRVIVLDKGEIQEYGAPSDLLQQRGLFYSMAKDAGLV

Usually IC50 stands for the concentration at which inhibition is half-maximal. `COc1cc2c(cc1OC)CN(CCc1ccc(NC(=O)c3cccc4c(=O)c5cccc(OC)c5[nH]c34)cc1)CC2` [GF120918] showed an IC50 at 96 h in data set [1] of 3.6 µM. Also, the IC50 in data set [2] stood at 40 µM; in data set [3] it was 15.2 µM; in data set [5] (Homo sapiens, S1-M1-80, read-out: IC50 for GF120918 alone, S1-M1-80 cells), 2500 nM; in [6] (Homo sapiens, MCF7-VP, read-out: IC50 for GF120918 alone, MCF-7/VP cells), 7.5 µM. In addition, the sensitization to mitoxantrone in [4] was found to be 31 fold; in data set [5] (GF120918 at 1 μM, S1-M1-80 cells expressing MXR) it was 1850 fold. Also, in data set [5] (S1-M1-80 cells), the sensitization to topotecan amounted to 23 fold. For the same molecule, in data set [6] (cytotoxicity reversal studies with etoposide, MRP-overexpressing MCF-7 VP-16 cells (data not shown)), the “reversing MRP-mediated resistance” value is given as “ineffective”. Also, the “effect on rhodamine efflux” value in data set [7] is given as “No effect”. Further, in [8], the “reversal of MRP-mediated calcein efflux” value is reported as “only slight reversal”. Besides, the “effect on mitoxantrone fluorescence” value in data set [9] (0.4 μM GF120918) is on record as “less marked”. For the same molecule, the “mitoxantrone level (accumulation, nuclear staining)” value in data set [9] (10 μM and 50 μM GF120918 (data not shown)) was “full reversal had been achieved”. The “concentration for full reversal of the rhodamine accumulation defect” value in [9] (S1-M1-80 cells) worked out at 10 µM. Further, the “concentration at which the rhodamine 123 accumulation defect was reversed” value in data set [9] (S1-M1-80 cells (data not shown)) worked out at 2 µM. The “rhodamine 123 accumulation” value in data set [10] (0.4 μM GF120918) is “enhanced”. In addition, in data set [10] (0.4 μM GF120918 during mitoxantrone incubation (data not shown)), the mitoxantrone fluorescence result is reported as “level comparable to that of the parental line”. Also, the “concentrations inhibiting Pgp-mediated efflux” value in data set [11] is reported as “nanomolar concentrations”.

The record behind these values is patent US6521635B1, “Inhibition of MXR transport by acridine derivatives” (priority 2000, dated 2003).
